Measurements reported in ChEMBL document CHEMBL1201862, “PubChem BioAssay data set” (2004).
Structures can show the parent of a compound that is named as a salt. Activity calls are given as the source filed them.

Assays:
[1] = target: T1, Heat shock factor protein 1 (Mus musculus, UniProt P38532); test: enhancement of HSF1-driven luciferase signal – cell-based, NIH3T3, luminescence, dose retest, confirmation (AID 435004); type: functional;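 also: stress induced by proteasome inhibitor MG132 added 30 min after compound; luciferase reporter driven by HSF1 response element in NIH3T3 cells; actives raise luminescence as potentiators of the MG132 stress response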
T1 sequence (P38532 whole entry): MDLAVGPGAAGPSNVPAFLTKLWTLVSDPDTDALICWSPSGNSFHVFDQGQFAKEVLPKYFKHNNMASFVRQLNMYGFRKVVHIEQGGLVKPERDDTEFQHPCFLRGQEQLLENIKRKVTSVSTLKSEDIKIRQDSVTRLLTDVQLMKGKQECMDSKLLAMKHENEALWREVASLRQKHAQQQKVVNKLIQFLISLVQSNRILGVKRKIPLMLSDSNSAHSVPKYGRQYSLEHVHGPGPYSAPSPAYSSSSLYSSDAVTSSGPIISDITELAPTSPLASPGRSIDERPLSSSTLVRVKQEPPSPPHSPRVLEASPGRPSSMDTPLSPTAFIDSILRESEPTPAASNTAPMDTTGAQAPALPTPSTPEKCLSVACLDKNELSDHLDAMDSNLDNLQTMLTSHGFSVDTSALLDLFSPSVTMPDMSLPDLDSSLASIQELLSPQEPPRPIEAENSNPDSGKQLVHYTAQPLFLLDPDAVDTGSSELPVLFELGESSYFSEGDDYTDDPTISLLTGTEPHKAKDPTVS

[2] = non-specific 3'UTR reporter inhibition in Clone20-Shn3RL – cell-based, Renilla luciferase, cherry-picked, counter-screen for Shn3 inhibitor project, dose response (AID 624133); type: functional
[3] = reduction of Shn3 3'UTR-driven luciferase in osteoblasts – cell-based, Clone20 osteoblasts, firefly luciferase, cherry-picked, dose response (AID 624132); type: functional;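 also: firefly luciferase luminescence from reporter carrying the Shn3 3'UTR in osteoblasts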
[4] = system: INS1; test: INS-1E survival protection against cytokine death – cell-based, luminescence, retest, dose response (AID 449756); type: functional; settings: Rattus norvegicus;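 also: cell death triggered by IL-1 beta plus TNF-alpha plus IFN-gamma mixture; protective hits raise ATP signal compared with cytokine alone wells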
[5] = target: Cytochrome P450 2C9 (Homo sapiens, UniProt P11712)
Cytochrome P450 2C9, sequence (P11712 whole entry): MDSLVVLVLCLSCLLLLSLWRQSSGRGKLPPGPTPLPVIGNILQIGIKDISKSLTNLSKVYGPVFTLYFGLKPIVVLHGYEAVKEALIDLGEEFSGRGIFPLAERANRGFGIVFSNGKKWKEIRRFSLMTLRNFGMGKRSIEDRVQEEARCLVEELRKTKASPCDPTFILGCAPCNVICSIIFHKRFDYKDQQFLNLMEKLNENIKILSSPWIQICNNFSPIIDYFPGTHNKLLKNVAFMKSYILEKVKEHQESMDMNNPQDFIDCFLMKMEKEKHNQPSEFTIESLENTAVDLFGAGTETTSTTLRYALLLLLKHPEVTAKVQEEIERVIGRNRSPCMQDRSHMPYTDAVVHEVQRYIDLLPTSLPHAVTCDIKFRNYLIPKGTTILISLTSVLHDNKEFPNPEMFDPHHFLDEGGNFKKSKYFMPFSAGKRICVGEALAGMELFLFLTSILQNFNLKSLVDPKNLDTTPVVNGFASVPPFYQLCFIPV

[6] = loss of viability in HepG2 cells – cell-based, CellTiter-Glo, cherry-picked, cytotoxicity control for Shn3 inhibitor project, dose response (AID 624134); type: functional
[7] = target: Galanin receptor type 2 (Homo sapiens, UniProt O43603); test: Dose Response cell-based high-throughput screening assay to identify antagonists of galanin receptor 2 (GALR2). [Related pubchem assays: 828, 866 ]; type: functional
Galanin receptor type 2, sequence (O43603 whole entry): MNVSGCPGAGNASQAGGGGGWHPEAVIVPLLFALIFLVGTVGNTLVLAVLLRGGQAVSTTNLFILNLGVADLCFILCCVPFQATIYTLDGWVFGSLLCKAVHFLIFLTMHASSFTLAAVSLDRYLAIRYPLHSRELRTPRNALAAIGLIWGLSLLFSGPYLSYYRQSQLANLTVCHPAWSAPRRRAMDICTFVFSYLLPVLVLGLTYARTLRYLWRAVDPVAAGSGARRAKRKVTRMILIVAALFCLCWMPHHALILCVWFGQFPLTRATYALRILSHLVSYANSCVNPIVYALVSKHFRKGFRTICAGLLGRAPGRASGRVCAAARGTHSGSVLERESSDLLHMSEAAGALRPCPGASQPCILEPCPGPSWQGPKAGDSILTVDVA

[8] = target: Sphingosine 1-phosphate receptor 2 (Homo sapiens, UniProt O95136); test: Dose Response Cell Based Assay for Antagonists of the S1P2 Receptor. [Related pubchem assays: 856, 736 ]; type: functional
Sphingosine 1-phosphate receptor 2, sequence (O95136 whole entry): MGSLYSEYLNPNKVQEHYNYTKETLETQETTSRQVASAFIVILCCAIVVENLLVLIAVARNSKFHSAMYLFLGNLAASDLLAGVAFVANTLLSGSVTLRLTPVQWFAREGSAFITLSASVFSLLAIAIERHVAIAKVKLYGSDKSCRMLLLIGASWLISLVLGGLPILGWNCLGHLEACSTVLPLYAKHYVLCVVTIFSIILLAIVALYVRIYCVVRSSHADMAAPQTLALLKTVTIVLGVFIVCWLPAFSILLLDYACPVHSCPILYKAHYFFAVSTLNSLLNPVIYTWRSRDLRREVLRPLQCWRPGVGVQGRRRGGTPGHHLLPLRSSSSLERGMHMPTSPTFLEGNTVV

[9] = target: T2, Short transient receptor potential channel 4 (Mus musculus, UniProt Q9QUQ5); test: calcium entry via TRPC4 opening agents – cell-based, HEK293 TRPC4/mu-opioid, Fluo-4 calcium, dose response (AID 434937); type: functional
T2 sequence (Q9QUQ5 whole entry): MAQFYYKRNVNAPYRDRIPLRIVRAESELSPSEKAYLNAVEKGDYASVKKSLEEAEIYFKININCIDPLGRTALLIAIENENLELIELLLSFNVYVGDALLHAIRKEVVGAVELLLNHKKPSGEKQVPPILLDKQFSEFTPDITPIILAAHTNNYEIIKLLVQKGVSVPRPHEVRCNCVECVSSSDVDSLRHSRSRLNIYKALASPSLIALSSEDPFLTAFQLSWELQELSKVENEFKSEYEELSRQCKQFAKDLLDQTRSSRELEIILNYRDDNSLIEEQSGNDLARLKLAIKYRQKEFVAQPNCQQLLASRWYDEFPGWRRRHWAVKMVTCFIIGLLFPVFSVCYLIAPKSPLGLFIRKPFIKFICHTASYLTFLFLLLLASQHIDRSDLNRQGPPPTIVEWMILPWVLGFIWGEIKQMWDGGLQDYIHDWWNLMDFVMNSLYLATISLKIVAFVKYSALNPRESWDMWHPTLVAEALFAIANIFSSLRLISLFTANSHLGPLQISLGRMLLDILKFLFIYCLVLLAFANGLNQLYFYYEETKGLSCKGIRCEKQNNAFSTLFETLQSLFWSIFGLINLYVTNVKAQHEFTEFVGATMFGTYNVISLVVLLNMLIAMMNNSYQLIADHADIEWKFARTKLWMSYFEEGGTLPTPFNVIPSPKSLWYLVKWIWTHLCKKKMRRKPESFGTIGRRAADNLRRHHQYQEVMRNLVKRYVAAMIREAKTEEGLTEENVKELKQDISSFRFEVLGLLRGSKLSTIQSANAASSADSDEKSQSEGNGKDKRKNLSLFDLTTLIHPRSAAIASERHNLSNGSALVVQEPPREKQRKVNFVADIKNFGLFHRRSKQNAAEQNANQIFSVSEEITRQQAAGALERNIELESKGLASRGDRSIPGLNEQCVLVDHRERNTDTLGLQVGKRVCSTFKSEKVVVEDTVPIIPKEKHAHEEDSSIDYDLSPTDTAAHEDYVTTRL

[10] = target: Aryl hydrocarbon receptor (Homo sapiens, UniProt P35869); test: Luminescence-based cell-based high throughput dose response assay for activators of the Aryl Hydrocarbon Receptor (AHR). [Related pubchem assays: 2796 (Primary screen (AHR activators in singlicate)), 2845 (Confirmation screen (AHR activators in triplicate)), 434939 (Counterscreen (PXR activators in triplicate)), 2804 (Summary (AHR activators))]; type: ADME
Aryl hydrocarbon receptor, sequence (P35869 whole entry): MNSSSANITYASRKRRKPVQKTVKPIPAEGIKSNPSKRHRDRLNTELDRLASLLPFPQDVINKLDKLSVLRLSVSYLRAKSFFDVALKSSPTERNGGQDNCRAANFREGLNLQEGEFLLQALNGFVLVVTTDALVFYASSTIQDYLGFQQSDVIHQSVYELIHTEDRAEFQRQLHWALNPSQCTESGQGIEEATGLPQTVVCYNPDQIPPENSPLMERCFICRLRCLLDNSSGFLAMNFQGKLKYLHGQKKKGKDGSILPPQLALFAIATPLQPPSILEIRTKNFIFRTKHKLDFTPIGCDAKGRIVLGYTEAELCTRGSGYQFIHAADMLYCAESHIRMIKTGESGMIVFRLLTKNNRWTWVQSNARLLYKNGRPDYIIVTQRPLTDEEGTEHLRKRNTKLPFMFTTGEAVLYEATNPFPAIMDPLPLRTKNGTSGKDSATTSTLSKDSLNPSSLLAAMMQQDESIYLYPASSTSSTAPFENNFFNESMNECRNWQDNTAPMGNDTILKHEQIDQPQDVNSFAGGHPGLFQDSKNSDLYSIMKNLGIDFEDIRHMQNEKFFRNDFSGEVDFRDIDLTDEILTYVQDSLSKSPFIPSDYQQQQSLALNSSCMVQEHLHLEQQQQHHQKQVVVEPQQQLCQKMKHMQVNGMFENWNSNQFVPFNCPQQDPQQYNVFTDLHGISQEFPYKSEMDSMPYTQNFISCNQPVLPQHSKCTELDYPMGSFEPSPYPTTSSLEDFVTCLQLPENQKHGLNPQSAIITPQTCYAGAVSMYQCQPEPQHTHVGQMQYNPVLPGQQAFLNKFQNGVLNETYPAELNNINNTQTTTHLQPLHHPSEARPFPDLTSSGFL

[11] = target: T3, Dual specificity protein phosphatase 6 (Rattus norvegicus, UniProt Q64346); test: inhibition of rat DUSP6 enzyme activity – biochemical, in vitro, primary screen (AID 425)
T3 sequence (Q64346 whole entry): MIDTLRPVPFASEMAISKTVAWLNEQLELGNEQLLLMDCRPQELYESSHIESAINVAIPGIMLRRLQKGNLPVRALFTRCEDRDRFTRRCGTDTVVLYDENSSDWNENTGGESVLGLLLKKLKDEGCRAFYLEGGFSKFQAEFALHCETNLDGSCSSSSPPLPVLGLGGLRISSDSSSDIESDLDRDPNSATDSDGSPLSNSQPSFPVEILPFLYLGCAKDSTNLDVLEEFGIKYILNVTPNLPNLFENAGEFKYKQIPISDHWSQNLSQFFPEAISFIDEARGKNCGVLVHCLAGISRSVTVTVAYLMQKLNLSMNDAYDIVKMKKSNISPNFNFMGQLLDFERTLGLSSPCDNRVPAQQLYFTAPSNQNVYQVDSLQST

[12] = target: T4, ORF 73 (Human herpesvirus 8, UniProt O40947); test: KSHV LANA DNA-binding disruption – biochemical, fluorescence polarization, cherry-picked samples, dose response (AID 504725); design: species or system Human gammaherpesvirus 8;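 also: fluorescence polarization of a labeled DNA duplex reporting LANA DNA binding; potency is for inhibitors that block LANA binding to the DNA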
T4 sequence (O40947 whole entry): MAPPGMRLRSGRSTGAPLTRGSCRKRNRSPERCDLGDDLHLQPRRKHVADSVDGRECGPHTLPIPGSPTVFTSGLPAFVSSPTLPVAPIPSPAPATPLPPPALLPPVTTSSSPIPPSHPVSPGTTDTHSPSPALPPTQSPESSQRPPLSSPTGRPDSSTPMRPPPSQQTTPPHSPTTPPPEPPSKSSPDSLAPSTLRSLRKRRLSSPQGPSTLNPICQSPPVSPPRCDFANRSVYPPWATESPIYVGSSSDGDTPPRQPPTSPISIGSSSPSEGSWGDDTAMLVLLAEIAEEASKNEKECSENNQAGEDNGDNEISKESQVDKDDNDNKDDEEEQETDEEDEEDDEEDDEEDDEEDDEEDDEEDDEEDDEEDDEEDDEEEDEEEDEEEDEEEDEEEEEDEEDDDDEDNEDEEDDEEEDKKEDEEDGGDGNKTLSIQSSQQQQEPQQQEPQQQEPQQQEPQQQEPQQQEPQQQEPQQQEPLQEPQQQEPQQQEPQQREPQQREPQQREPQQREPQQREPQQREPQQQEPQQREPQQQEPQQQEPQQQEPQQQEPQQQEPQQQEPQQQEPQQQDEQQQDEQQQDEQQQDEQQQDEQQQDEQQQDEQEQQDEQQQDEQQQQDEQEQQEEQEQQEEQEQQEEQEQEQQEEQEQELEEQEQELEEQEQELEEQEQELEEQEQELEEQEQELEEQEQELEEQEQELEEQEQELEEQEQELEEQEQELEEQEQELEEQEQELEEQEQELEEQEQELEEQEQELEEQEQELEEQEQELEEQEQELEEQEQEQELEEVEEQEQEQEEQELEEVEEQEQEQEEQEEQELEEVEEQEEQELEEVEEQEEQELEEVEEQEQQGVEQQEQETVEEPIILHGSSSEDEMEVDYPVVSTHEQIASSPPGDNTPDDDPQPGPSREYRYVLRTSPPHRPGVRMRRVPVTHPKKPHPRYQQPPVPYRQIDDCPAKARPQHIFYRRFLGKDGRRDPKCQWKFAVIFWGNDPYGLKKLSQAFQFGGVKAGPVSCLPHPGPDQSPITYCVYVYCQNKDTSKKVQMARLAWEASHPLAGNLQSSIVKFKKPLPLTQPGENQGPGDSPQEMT

[13] = system: Streptococcus sp. 'group A'; test: Streptococcus pyogenes SK(-)GAS viability under kanamycin – luminescence, BacTiterGlo, confirmation, counter-screen for streptokinase expression inhibitor project, dose response (AID 1900); type: functional, organism-based
[14] = system: BJ; test: growth inhibition of engineered Ras-driven BJ cells – cell-based, alamar blue fluorescence, cherrypicked samples, dose response (AID 2631); type: functional; settings: Homo sapiens;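 also: confirmatory dose-response assay in RAS-dependent BJ fibroblasts engineered with TERT, LT and ST, with cytotoxicity read by fluorescence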
[15] = system: HeLa; test: viability loss in HeLa cells – cell-based, 24 h, cherry-picked samples, cytotoxicity control, dose response (AID 504726); type: functional; settings: Homo sapiens;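 also: potency for cytotoxicity as loss of luminescence signal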
[16] = target: UDP-galactopyranose mutase (Mycobacterium tuberculosis, UniProt P9WIQ1); test: Inhibitors of Mycobacterium tuberculosis UDP-galactopyranose mutase (UGM) enzyme Measured in Biochemical System Using Plate Reader - 2105-02_Inhibitor_Dose_CherryPick_Activity. [Related pubchem assays (depositor defined):AID504439]
UDP-galactopyranose mutase, sequence (P9WIQ1 whole entry): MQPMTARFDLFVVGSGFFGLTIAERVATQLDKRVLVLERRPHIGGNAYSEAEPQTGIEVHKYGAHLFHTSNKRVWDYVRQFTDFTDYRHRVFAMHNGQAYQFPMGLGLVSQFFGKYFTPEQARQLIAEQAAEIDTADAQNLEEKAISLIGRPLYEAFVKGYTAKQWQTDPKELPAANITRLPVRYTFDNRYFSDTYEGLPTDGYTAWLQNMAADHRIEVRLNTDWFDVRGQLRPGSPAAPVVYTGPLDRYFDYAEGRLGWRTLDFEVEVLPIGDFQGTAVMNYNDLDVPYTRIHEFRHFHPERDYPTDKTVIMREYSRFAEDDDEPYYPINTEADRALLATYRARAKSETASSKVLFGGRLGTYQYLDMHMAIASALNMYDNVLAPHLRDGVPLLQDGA

[17] = HEK-293T viability loss, compound-treated – cell-based, uHTS hits, cytotoxicity control for B/T-cell NF-kB inhibitor project, dose response (AID 489019); type: functional;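 also: IC50 reflects cytotoxicity as loss of cell viability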
[18] = system: Streptococcus; test: GAS UMAA2166 growth inhibition – luminescence, BacTiterGlo, counter-screen for streptokinase expression inhibitor project, dose response (AID 1915); type: functional, organism-based;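 also: potency for reduction of bacterial viability or growth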
[19] = target: T5, Apoptotic protease-activating factor 1 (Homo sapiens, UniProt O14727); type: functional
T5 sequence (O14727 whole entry): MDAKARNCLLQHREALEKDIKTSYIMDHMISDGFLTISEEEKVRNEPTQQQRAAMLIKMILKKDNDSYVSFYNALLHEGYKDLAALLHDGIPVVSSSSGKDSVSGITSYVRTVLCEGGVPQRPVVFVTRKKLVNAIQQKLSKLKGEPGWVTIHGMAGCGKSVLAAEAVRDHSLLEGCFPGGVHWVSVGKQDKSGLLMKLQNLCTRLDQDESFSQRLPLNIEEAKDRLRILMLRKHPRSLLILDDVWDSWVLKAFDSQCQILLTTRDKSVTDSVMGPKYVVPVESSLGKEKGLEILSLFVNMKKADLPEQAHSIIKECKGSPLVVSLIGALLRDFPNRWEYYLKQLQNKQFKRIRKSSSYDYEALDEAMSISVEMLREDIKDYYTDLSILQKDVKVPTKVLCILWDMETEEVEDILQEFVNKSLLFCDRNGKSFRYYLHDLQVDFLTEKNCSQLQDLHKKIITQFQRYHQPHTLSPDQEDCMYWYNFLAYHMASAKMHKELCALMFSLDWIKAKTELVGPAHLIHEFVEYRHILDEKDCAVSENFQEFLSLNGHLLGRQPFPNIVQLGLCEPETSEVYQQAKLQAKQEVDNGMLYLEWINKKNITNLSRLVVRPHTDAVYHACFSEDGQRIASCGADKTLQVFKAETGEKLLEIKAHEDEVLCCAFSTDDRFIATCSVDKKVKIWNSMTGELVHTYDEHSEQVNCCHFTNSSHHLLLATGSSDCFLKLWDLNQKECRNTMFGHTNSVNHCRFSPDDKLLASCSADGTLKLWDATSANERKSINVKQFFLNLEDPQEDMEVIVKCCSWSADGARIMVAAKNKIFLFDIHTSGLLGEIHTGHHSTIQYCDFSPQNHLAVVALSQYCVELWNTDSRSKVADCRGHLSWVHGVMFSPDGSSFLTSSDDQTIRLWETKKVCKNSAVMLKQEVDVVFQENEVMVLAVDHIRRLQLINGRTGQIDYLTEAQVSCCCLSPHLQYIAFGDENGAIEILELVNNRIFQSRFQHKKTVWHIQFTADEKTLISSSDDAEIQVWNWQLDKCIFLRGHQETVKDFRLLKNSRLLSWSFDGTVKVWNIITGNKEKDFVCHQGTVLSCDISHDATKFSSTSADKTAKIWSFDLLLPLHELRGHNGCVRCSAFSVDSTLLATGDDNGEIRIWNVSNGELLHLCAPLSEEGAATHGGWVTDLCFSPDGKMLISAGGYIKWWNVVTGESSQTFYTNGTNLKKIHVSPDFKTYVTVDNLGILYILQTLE

[20] = target: 14-3-3 protein gamma (Homo sapiens, UniProt P61981); test: modulators of 14-3-3 gamma client binding – dose response (AID 711); type: functional
14-3-3 protein gamma, sequence (P61981 whole entry): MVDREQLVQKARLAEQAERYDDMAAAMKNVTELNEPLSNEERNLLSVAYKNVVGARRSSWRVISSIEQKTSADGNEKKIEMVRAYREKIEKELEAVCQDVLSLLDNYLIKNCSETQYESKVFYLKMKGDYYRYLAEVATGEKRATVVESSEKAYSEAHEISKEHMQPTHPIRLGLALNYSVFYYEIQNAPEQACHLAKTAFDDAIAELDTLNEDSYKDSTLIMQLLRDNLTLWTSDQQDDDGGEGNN

[21] = target: Protein S100-A4 (Homo sapiens, UniProt P26447); test: human S100A4 peptide interaction inhibition curves – biochemical, fluorescence polarization, cherry-picked hits, dose response (AID 687001); type: functional
Protein S100-A4, sequence (P26447 whole entry): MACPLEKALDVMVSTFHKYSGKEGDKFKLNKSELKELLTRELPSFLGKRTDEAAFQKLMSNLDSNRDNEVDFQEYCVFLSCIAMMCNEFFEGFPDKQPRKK

[22] = target: Keap1/Nrf2 (Homo sapiens, UniProt Q14145); test: disruptors of Keap1 binding to Nrf2 peptide – biochemical, fluorescence polarization, cherry-picked samples, dose response (AID 588683)
Keap1/Nrf2, sequence (Q16236 whole entry): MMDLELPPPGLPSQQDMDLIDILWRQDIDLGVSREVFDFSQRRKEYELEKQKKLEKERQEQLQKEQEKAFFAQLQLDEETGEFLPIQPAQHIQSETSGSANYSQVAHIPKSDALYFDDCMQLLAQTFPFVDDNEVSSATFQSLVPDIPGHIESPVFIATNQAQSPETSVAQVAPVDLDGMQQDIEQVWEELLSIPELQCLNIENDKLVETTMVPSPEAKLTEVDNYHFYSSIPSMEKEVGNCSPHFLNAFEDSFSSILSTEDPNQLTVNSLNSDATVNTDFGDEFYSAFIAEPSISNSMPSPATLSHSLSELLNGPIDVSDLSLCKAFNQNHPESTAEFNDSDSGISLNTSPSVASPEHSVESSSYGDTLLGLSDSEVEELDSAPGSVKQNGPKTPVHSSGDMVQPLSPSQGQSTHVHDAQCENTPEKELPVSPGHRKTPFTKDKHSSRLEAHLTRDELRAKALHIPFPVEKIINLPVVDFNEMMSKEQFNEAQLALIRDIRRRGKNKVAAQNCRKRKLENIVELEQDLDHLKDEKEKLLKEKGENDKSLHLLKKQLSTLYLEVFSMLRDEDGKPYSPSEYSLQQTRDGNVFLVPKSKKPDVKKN
Keap1/Nrf2, sequence (Q14145 whole entry): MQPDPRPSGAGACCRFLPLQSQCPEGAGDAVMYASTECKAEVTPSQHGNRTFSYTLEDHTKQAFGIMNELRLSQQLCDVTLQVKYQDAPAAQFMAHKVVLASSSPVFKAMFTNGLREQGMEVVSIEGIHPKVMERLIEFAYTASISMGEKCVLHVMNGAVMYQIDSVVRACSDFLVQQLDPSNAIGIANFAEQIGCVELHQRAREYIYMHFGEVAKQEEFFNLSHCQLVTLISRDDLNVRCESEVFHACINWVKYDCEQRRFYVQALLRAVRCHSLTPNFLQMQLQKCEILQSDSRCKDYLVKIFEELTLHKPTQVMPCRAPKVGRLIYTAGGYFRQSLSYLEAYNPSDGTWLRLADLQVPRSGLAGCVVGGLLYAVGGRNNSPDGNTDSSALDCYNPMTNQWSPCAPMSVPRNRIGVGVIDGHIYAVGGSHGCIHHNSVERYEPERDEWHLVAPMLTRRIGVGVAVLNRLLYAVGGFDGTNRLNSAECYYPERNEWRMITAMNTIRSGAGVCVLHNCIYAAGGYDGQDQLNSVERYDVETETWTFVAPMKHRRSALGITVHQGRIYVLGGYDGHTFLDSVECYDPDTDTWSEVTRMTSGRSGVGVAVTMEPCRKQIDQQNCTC

Cc1ccc2[nH]c3c(N4CCc5ccccc5C4)ncnc3c2c1
EC50 [1]: 103 µM (active)
AC50 [2]: < 0.26 µM (active)
AC50 [3]: 1.18 µM (active)
AC50 [4]: 1.38 µM (active)
AC50 [5]: 2.24 µM (inconclusive)
AC50 [6]: 33.8 µM (active)
IC50 [7]: > 42 µM (not active)
IC50 [8]: 3.63 µM (active)
EC50 [9]: 5.96 µM (active)

Cc1cccc2cc3c(N)c(C(=O)N4CCOCC4)sc3nc12
EC50 [1]: > 260 µM (inactive)
EC50 [10]: > 3.39 µM (active)

COC(=O)CCCc1nc2ccccc2s1
IC50 [11]: > 100 µM (not active)

COc1cccc2c1C(=O)c1c(O)c3c(c(O)c1C2=O)C[C@@](O)(C(=O)CO)C[C@@H]3O[C@H]1C[C@H](N)[C@H](O)[C@H](C)O1 [DOXORUBICIN HYDROCHLORIDE]
AC50 [12]: 1.46 µM (active)
EC50 [13]: 0.518 µM (active)
EC50 [14]: < 0.104 µM (active)
AC50 [15]: 4.38 µM (active)
AC50 [16]: 32.2 µM (active)
IC50 [17]: > 80 µM (inactive)
EC50 [18]: 3.69 µM (active)
IC50 [19]: 21.2 µM (active)
IC50 [20]: < 0.781 µM (active)
AC50 [21]: 0.323 µM (active)
AC50 [22]: 43.4 µM (active)
